Assay results from patent publication US20220183994A1, “DELIVERY DEVICES FOR LOCALIZED DELIVERY OF ANTIMICROBIAL, ANTI-INFLAMMATORY, AND ANTIOXIDANT AGENTS” (priority 2019, published 2022).
Read-outs that look alike come from different tables or passages of the source.

How the values were obtained:
[1] = tested on: human bronchial epithelial (16HBE) cells; test: Cellular ROS/Superoxide Detection Assay in silver-exposed cells; type: cell-based
Protocol: Cellular ROS and superoxide levels were measured in 16HBE cells using a Cellular ROS/Superoxide Detection Assay Kit according to manufacturer's recommended protocol. Briefly, cells were seeded at a density of 25,000 cells/well in a black wall/clear bottom 96-well plate and incubated for 24 h as described above. Next, the feeding media was aspirated and cells were incubated with fresh media supplemented with or without 10 mM NAC for 2 h. […] Upon staining, the fluorescence signal from the two fluorescent dyes, green signal from ROS detection probe (Ex/Em=490/525 nm) and orange signal from superoxide detection probe (Ex/Em=550/620 nm), were quantified using a BioTek Instruments Cytation 5 Multimode Reader at 0, 4, 6, 8, and 24 h. […] All experiments were performed with 6 technical replicates and a minimum of 2 biological replicates.

16HBE cells [2] = test: Glucose/lactate (BioProfile analyzer) and metabolite pool size and labeling (GC-MS); type: cell-based, human
Protocol: Analysis of total metabolite pool size and metabolite labeling patterns using Gas Chromatography-Mass Spectroscopy. 16HBE cells were seeded at a density of 250,000 cells per dish in a 60 mm cell culture dish and incubated until they reached 90% confluency. During this period, feeding media was replaced every 48 h. Once confluent, the media was aspirated, cells were washed with 1× PBS, and incubated with 2 mL 0 or 10 mM NAC for 2 h. […] At 8 h, the feeding medium from each plate was collected, centrifuged at 1000 rpm for 5 min to remove any cell debris, and frozen at −80° C., until further analysis. The cells were washed twice with 1× PBS, re-suspended by gentle scraping in 1 mL chilled 50% methanol solution, cell lysate collected in centrifuge tubes, flash frozen using liquid nitrogen, and stored at −80° C. till analysis.
MEM and stock solution of 4 mM GLN-10 mM D-[U^13C]-GLC medium treated in an identical manner were used as controls.
Cell suspensions frozen in 50% methanol were thawed and subjected to three additional freeze-thaw cycles using liquid nitrogen and a water bath. Subsequently, the cell suspensions were centrifuged at 14,000 rpm for 10 min to remove cell debris, and the supernatants were transferred to individually labeled glass drying tubes. 10 μl of an internal standard (50 nmols of sodium 2-oxobutyrate) was added to each tube at this time, and the samples were air-dried on a heat block. The dried samples were derivatized by addition of 100 μl of Tri-sil HTP reagent (Thermo Scientific) to each tube, capping the tube, vortexing the samples, and placing them on the heat block for an additional 30 min. The derivatized samples were transferred to auto-injector vials and analyzed using gas chromatography-mass spectroscopy (GC-MS; Agilent Technologies, Santa Clara, Calif.). Separately, the cell pellets with residual cell lysate was collected, contents thoroughly mixed with 200 μL 0.1 N sodium hydroxide, and heated to 100° C. to extract and solubilize the proteins. The samples were cooled and analyzed using a standard BCA assay to quantify the protein content. All metabolite concentrations determined using the BioProfile Basic-4 analyzer (NOVA) and GC-MS were normalized with the protein content.

16HBE cells [3] = test: ATP content (ATP determination kit); type: cell-based, human; details: 10 mM NAC pre-incubation, silver acetate 8 h, vs cells exposed to silver alone
Protocol: 50,000 16HBE cells were seeded in each well of a 96-well plate and the cells were allowed to attach. At 24 h, media was aspirated, and cells were pre-incubated with 80 μL of 0 or 10 mM concentrations of NAC for 2 h. […] Finally, the cell lysate was collected and the ATP concentration determined and correlated to an established standard curve. Briefly, a standard reaction mixture consisting of molecular grade water, reaction buffer, Dithiothreitol (DTT) solution, D-luciferin, and firefly luciferase at manufacturer recommended concentrations was prepared. Next, 10 μL of standard ATP solution or cell lysate was mixed with 90 μL standard reaction mixture in a 96-well white bottom plate and luminescence was measured at 560 nm. Background luminescence was subtracted from all readings and the data were normalized to drug free controls.

16HBE cells [4] = tested on: 16HBE cells
Protocol: Cells were seeded at a density of 25,000 cells/well in a 96-well plate and incubated overnight as described above. […] ALAMARBLUE® test reagent was added to each well, and the plates were incubated as described above. At 8-hour and 24-hour timepoints, absorbance was measured at 570 and 600 nm, normalized to media only controls, and analyzed per manufacturer's instructions. All experiments were performed with 6 technical replicates and 3 biological replicates.
Statistics. All data were analyzed using GraphPad Prism 7 (GraphPad Software, Inc., La Jolla, Calif.). […] Additionally, non-linear regression was used to deduce the lethal dose at median cell viability (LD50) for cell viability assays.

[5] = tested on: 31 P. aeruginosa isolates; test: MIC90/MBC90 over expanded isolate panel; type: cell-based, Pseudomonas aeruginosa
[6] = Total Antioxidant Capacity Assay (Trolox standard curve, Cu+2 probe); details: 10 mM antioxidant, compared with trolox
Protocol: Activity of antioxidants. […] A standard curve correlating the Trolox concentration to the antioxidant capacity was generated according to manufacturer's protocol. […] Two million 16HBE cells were seeded into each well of a 12-well plate and incubated overnight as described above. […] Finally, the insoluble cell debris was removed by centrifugation and the supernatant analyzed as described above to determine the total antioxidant capacity. All experiments were performed with 4 technical replicates and two biological replicates.

[7] = 50 μg/mL silver acetate after 10 mM antioxidant pre-incubation

Compound	effect of NAC pre-incubation itself on superoxide levels [1]	superoxide levels ([1]; 10 mM NAC pre-incubation, 10, 20, and 50 μg/mL silver acetate, 8 and 24 hours)	ROS levels ([1]; 10 mM NAC pre-incubation, silver acetate higher than 20 μg/mL, 8 and 24 hours)	superoxide levels ([1]; NAC pre-incubation, 100 μg/mL silver acetate, 8 hours)	superoxide levels ([1]; NAC pre-incubation, 100 μg/mL silver acetate, 24 hours)	ROS induced by NAC pre-incubation itself ([1]; subsides after 8 hours)	lactate levels (GC-MS) (16HBE cells [2]; NAC pre-incubated cells, 50 μg/mL silver acetate only)	citrate, glutamate, fumarate, and malate levels (16HBE cells [2]; NAC pre-incubated cells, 30, 40, 50, and 75 μg/mL silver acetate)	aspartate levels (16HBE cells [2]; NAC pre-incubated cells, 50 and 75 μg/mL silver acetate)	glucose consumption and lactate production (16HBE cells [2]; cells pre-treated with 0 vs 10 mM NAC)	labeling patterns of key metabolites (16HBE cells [2]; pre-incubation with NAC)	ATP production (16HBE cells [3])	cell survival (16HBE cells [4]; [7])	MBC90 ([5]; concentration required to eradicate 90% of 31 P. aeruginosa isolates)	MIC90 ([5]; concentration required to inhibit 90% of 31 P. aeruginosa isolates)	antioxidant capacity, trolox equivalent [6]	cell survival (16HBE cells [4]; 7.5 and 10 mM ascorbic acid pre-incubation, up to 100 μg/mL silver acetate)
CC(=O)N[C@@H](CS)C(=O)O [NAC, N-acetyl cysteine]	no effect	significantly (p≤0.001) lower	significantly (p≤0.001) lower	significantly (p≤0.01) lower	not at 24 hours	initially induces ROS	significantly higher	significantly (p≤0.05) higher	significantly (p≤0.05) higher	No significant difference	does not appreciably alter	significantly higher	86%				
CC(C)Cc1ccc(C(C)C(=O)O)cc1.[Ag] (stereo not drawn) [Silver Ibuprofen, silver salt of ibuprofen]														4 µg/mL	4 µg/mL		
O=C1O[C@H]([C@@H](O)CO)C(O)=C1O [Ascorbic Acid, ascorbic acid]													22%			40 fold	significantly (p<0.05) higher
